Laboratory results as given in the supplement of paper PMC11451515.

Tested on: NOMO1
Assay: cell viability relative to DMSO control; higher = less cytotoxic
Settings: 48 h
Method in brief: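 Viability values are per-plate percentages of DMSO wells, with background from cell-free wells. Library compounds in DMSO were pin-dosed, in an 11-point threefold series from 47 μM to 0.79 nM, onto NOMO1 or SEM (500 cells/well) or P12-Ichikawa (1000 cells/well) leukemia cells in 1536-well plates (5 μl). Those cells had been adapted for at least four passages in each medium, and CellTiter-Glo One luminescence was read after 48 h at 37°C.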

[1] = HPLM + 10% dialyzed FBS, 0.000781 µM
[2] = HPLM + 10% dialyzed FBS, 0.00234 µM
[3] = HPLM + 10% dialyzed FBS, 0.00702 µM
[4] = HPLM + 10% dialyzed FBS, 0.0211 µM
[5] = HPLM + 10% dialyzed FBS, 0.0632 µM
[6] = HPLM + 10% dialyzed FBS, 0.19 µM
[7] = HPLM + 10% dialyzed FBS, 0.569 µM
[8] = HPLM + 10% dialyzed FBS, 1.71 µM
[9] = HPLM + 10% dialyzed FBS, 5.12 µM
[10] = HPLM + 10% dialyzed FBS, 15.4 µM
[11] = HPLM + 10% dialyzed FBS, 46.1 µM
[12] = RPMI 5 mM glucose + 10% FBS, 0.000781 µM
[13] = RPMI 5 mM glucose + 10% FBS, 0.00234 µM
[14] = RPMI 5 mM glucose + 10% FBS, 0.00702 µM
[15] = RPMI 5 mM glucose + 10% FBS, 0.0211 µM
[16] = RPMI 5 mM glucose + 10% FBS, 0.0632 µM
[17] = RPMI 5 mM glucose + 10% FBS, 0.19 µM
[18] = RPMI 5 mM glucose + 10% FBS, 0.569 µM
[19] = RPMI 5 mM glucose + 10% FBS, 1.71 µM
[20] = RPMI 5 mM glucose + 10% FBS, 5.12 µM
[21] = RPMI 5 mM glucose + 10% FBS, 15.4 µM
[22] = RPMI 5 mM glucose + 10% FBS, 46.1 µM
[23] = RPMI 5 mM glucose + 10% dialyzed FBS, 0.000781 µM
[24] = RPMI 5 mM glucose + 10% dialyzed FBS, 0.00234 µM
[25] = RPMI 5 mM glucose + 10% dialyzed FBS, 0.00702 µM
[26] = RPMI 5 mM glucose + 10% dialyzed FBS, 0.0211 µM
[27] = RPMI 5 mM glucose + 10% dialyzed FBS, 0.0632 µM
[28] = RPMI 5 mM glucose + 10% dialyzed FBS, 0.19 µM
[29] = RPMI 5 mM glucose + 10% dialyzed FBS, 0.569 µM
[30] = RPMI 5 mM glucose + 10% dialyzed FBS, 1.71 µM
[31] = RPMI 5 mM glucose + 10% dialyzed FBS, 5.12 µM
[32] = RPMI 5 mM glucose + 10% dialyzed FBS, 15.4 µM
[33] = RPMI 5 mM glucose + 10% dialyzed FBS, 46.1 µM

| Structure (SMILES) | cell viability [1] [%] | cell viability [2] [%] | cell viability [3] [%] | cell viability [4] [%] | cell viability [5] [%] | cell viability [6] [%] | cell viability [7] [%] | cell viability [8] [%] | cell viability [9] [%] | cell viability [10] [%] | cell viability [11] [%] | cell viability [12] [%] | cell viability [13] [%] | cell viability [14] [%] | cell viability [15] [%] | cell viability [16] [%] | cell viability [17] [%] | cell viability [18] [%] | cell viability [19] [%] | cell viability [20] [%] | cell viability [21] [%] | cell viability [22] [%] | cell viability [23] [%] | cell viability [24] [%] | cell viability [25] [%] | cell viability [26] [%] | cell viability [27] [%] | cell viability [28] [%] | cell viability [29] [%] | cell viability [30] [%] | cell viability [31] [%] | cell viability [32] [%] | cell viability [33] [%] |
| --- | --- | --- | --- | --- | --- | --- | --- | --- | --- | --- | --- | --- | --- | --- | --- | --- | --- | --- | --- | --- | --- | --- | --- | --- | --- | --- | --- | --- | --- | --- | --- | --- | --- |
| O=C1N\2CCC3=C([NH]C4=C3C=CC=C4)C2=N/C5=CC=CC=C15 | 111 | 122 | 130 | 134 | 155 | 147 | 130 | 129 | 155 | 130 | 112 | 144 | 124 | 125 | 128 | 132 | 124 | 169 | 136 | 139 | 140 | 131 | 115 | 121 | 129 | 130 | 130 | 124 | 122 | 140 | 135 | 141 | 124 |
| CC(C)c1ccccc1Cc1cc(C(=O)Nc2ccc([S+](=O)([O-])c3ccccc3C(C)(C)C)cc2)c(O)c(O)c1O | – | – | – | – | – | – | – | – | – | – | – | 102 | 116 | 101 | 102 | 114 | 117 | 102 | 109 | 105 | 97.4 | 87.7 | 103 | 117 | 111 | 115 | 108 | 118 | 104 | 118 | 96.8 | 97 | 104 |
| CCCCCCCCc1ccc(CCC(N)(CO)CO)cc1 | 124 | 124 | 123 | 122 | 112 | 102 | 79.1 | 91 | 60.6 | 48.9 | 2.93 | 99.2 | 104 | 102 | 100 | 105 | 102 | 104 | 93.4 | 90.3 | 64.2 | 2.61 | 113 | 105 | 103 | 113 | 105 | 95.6 | 98.2 | 81 | 70.5 | 65.2 | 2.38 |
| CO[C@@H]1C(N(C)C(=O)c2ccccc2)C[C@H]2O[C@]1(C)n1c3ccccc3c3c4c(c5c6ccccc6n2c5c31)C(=O)NC4=O (stereo not given in full) | 82.2 | 105 | 90.2 | 106 | 98.1 | 104 | 98.3 | 101 | 58.4 | 40.4 | 10.2 | 76.8 | 90.2 | 83.1 | 91 | 88.4 | 104 | 87 | 89.3 | 53.5 | 47.7 | 8.01 | 71.5 | 78.8 | 78 | 91.7 | 85.1 | 85.4 | 75.3 | 90.6 | 42.7 | 49.1 | 8.58 |
| CCNC(=O)[C@H]1O[C@@H](n2cnc3c(N)nc(NCCc4ccc(CCC(=O)O)cc4)nc32)[C@H](O)[C@@H]1O | 104 | 83.1 | 98.9 | 103 | 95.7 | 104 | 96.6 | 95.6 | 87.3 | 96.6 | 91 | 104 | 91.6 | 94 | 102 | 89.4 | 89.3 | 86.9 | 90.6 | 89.9 | 90.8 | 84.1 | 89.3 | 104 | 100 | 93.5 | 92.3 | 90.8 | 96.9 | 88.7 | 94.5 | 78.8 | 87.8 |
| COc1cc2ncnc(Nc3cccc(Br)c3)c2cc1OC | 90.4 | 98.3 | 101 | 98.9 | 109 | 120 | 108 | 118 | 98.2 | 94.5 | 86.1 | 98 | 95.9 | 106 | 110 | 109 | 108 | 110 | 111 | 106 | 112 | 117 | 80.8 | 90.6 | 98.6 | 97.4 | 103 | 103 | 102 | 112 | 102 | 102 | 101 |
| N\C1=N\C2=C(N=C[N]2COC(CO)CO)C(=O)N1 | 88.7 | 110 | 116 | 114 | 131 | 120 | 133 | 109 | 110 | 92.2 | 5.43 | 110 | 119 | 114 | 118 | 103 | 107 | 121 | 110 | 116 | 101 | 4.52 | 99.5 | 112 | 99.5 | 102 | 122 | 117 | 117 | 112 | 99.8 | 95.5 | 3.67 |
| Oc1cc(O)cc(/C=C/c2ccc(O)c(O)c2)c1 | 97.9 | 101 | 99.3 | 99.4 | 110 | 104 | 97.4 | 101 | 100 | 56 | 45.4 | 89.7 | 90.5 | 94 | 85.6 | 91.9 | 85.7 | 97.1 | 88.4 | 86.9 | 72.3 | 70.8 | 81.6 | 99.6 | 92.3 | 88.8 | 103 | 98.4 | 94.9 | 93.5 | 79.3 | 84.8 | 72.8 |
| CCNc1cc(NC2CCC(O)CC2)nc(Nc2ccc3c(ccn3Cc3ccccc3)c2)n1 (stereo not given) | 113 | 121 | 126 | 124 | 147 | 118 | 127 | 139 | 121 | 116 | 120 | – | – | – | – | – | – | – | – | – | – | – | 115 | 123 | 124 | 142 | 141 | 129 | 148 | 121 | 150 | 145 | 106 |
| CC[C@@]1(O)C[C@H](O[C@H]2C[C@H](N(C)C)[C@H](O[C@H]3C[C@H](O)[C@H](O[C@H]4CCC(=O)[C@H](C)O4)[C@H](C)O3)[C@H](C)O2)c2c(cc3c(c2O)C(=O)c2c(O)cccc2C3=O)[C@H]1C(=O)OC | 109 | 106 | 106 | 106 | 122 | 101 | 109 | 82 | 67 | 78.5 | 71.9 | 95.7 | 102 | 95.6 | 97.6 | 106 | 93.8 | 95.6 | 64.2 | 76.6 | 75.8 | 85 | 91.5 | 84.7 | 94.4 | 98.1 | 102 | 90.4 | 93.9 | 67.7 | 71.6 | 75.3 | 72.1 |
| COc1cc([C@@H]2c3cc4c(cc3[C@@H](O[C@@H]3O[C@@H]5CO[C@@H](c6cccs6)O[C@H]5[C@H](O)[C@H]3O)[C@H]3COC(=O)[C@H]23)OCO4)cc(OC)c1O | 92.7 | 97.4 | 115 | 111 | 103 | 89.6 | 97.7 | 34.3 | 116 | 31.1 | 13.8 | 85.3 | 85.6 | 89.7 | 97.2 | 81.7 | 99.3 | 91.2 | 22.9 | 101 | 22.4 | 12.7 | 89.5 | 82.9 | 91 | 89.6 | 93.2 | 90.6 | 101 | 32.4 | 99.3 | 25.2 | 16.7 |
| COc1cc(N[S+](=O)([O-])c2ccc(N)cc2)nc(OC)n1 | 102 | 106 | 111 | 116 | 109 | 92.5 | 114 | 112 | 99.3 | 132 | 109 | 107 | 106 | 116 | 111 | 124 | 111 | 112 | 103 | 96.3 | 111 | 120 | 105 | 91.9 | 104 | 103 | 102 | 115 | 110 | 99.9 | 94 | 116 | 111 |
| CC(C)NCC(O)c1ccc(NS(C)(=O)=O)cc1 (stereo not given) | 110 | 114 | 110 | 120 | 126 | 119 | 101 | 113 | 109 | 102 | 111 | 90.5 | 91.9 | 104 | 86.2 | 90.7 | 98.6 | 89.4 | 89 | 94.1 | 104 | 94.2 | 87.9 | 103 | 110 | 102 | 105 | 124 | 102 | 94.1 | 102 | 98.1 | 117 |
| C#C[C@]1(O)CC[C@H]2[C@@H]3CCc4cc(OC)ccc4[C@H]3CC[C@@]21C | 108 | 123 | 114 | 118 | 117 | 114 | 107 | 105 | 109 | 102 | 95.4 | 117 | 124 | 108 | 110 | 123 | 123 | 117 | 108 | 106 | 104 | 93.5 | 115 | 107 | 106 | 124 | 120 | 108 | 103 | 109 | 104 | 103 | 107 |
